Test results reported in US11453632B2, “1-phenyl-2-phenylethane derivative” (KAO CORPORATION, priority 2018, dated 2022).

Experiments:
[1] = target: T1, ERα LBD (Homo sapiens, UniProt P03372); assay: Ability to bind to ERα: pBIND-ERα LBD / GAL4 luciferase reporter in HEK293 cells; assay type: cell-based; parameters: key: firefly luciferase / Renilla luciferase luminescence ratio; conditions: negative control 0.00847035
T1 construct: host or cells: HEK293
T1 sequence (P03372 311-547 limits assumed): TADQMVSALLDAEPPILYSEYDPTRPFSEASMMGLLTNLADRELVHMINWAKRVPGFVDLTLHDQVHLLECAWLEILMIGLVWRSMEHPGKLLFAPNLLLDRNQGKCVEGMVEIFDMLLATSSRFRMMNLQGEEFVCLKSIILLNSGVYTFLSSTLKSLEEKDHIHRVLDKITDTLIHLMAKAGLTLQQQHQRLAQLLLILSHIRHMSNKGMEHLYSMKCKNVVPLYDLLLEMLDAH
Description: (§1) A human kidney-derived cell line HEK293 was cultured (37° C., 5% CO2) in Dulbecco's modified Eagle medium (hereinafter, abbreviated to DMEM) containing 10% (v/v) fetal bovine serum (FBS) and penicillin/streptomycin.
(§2) 2) Measurement of Binding Activity Against ERs
(§3) Specifically, HEK293 cells were inoculated at a cell density of 4.0×10^4 cells/well to a 96-well plate. After 12 hours therefrom, the medium was replaced with a culture solution (DMEM containing 5% (v/v) charcoal-treated serum). The cells were cotransfected with pBIND-ERα for the expression of ERα LBD or pBIND-ERβ for the expression of ERβ LBD (Promega Corp.) and pGL4.35[luc2P/9XGAL4UAS/Hygro](Promega Corp.) using Lipofectamine 2000 (Invitrogen Corp.) according to the protocol attached to the product. 24 hours after transfection, the medium was replaced with a culture solution containing a test sample, followed by culture for another 24 hours. The activity measurement of firefly luciferase (index for the ligand binding activity of ER) and Renilla reniformis luciferase (index for the transfection efficiency of the plasmids) was carried out using Dual-Glo™ Luciferase Assay System (Promega Corp.) according to the attached protocol. The luminescence intensity of the firefly luciferase was divided by the luminescence intensity of the Renilla reniformis luciferase to calculate a relative light unit (RLU).

[2] = target: T2, ERβ LBD (Homo sapiens, UniProt Q92731); assay: Ability to bind to ERβ: pBIND-ERβ LBD / GAL4 luciferase reporter in HEK293 cells; assay type: cell-based; parameters: key: RLU = firefly luminescence / Renilla luminescence; conditions: negative control 0.0118997
T2 construct: host or cells: HEK293
T2 sequence (Q92731 264-498 limits assumed): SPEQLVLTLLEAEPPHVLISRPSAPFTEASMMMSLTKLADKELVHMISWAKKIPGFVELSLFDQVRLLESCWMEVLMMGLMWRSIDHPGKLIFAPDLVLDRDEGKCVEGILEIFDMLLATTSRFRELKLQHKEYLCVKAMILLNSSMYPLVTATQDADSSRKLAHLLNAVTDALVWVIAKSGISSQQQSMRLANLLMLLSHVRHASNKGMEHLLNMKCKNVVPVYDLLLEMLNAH
Description: This evaluation system is a system exploiting difference in the sequence of the ligand binding domain (LBD) between ERα and ERβ (J Endocrinol 163: 379-383 (1999)), and enables selective activation of ERβ to be evaluated by determining the binding of a ligand to LBD and the activation of ER.
as §1, §2
as §3, with “This measurement was carried out according to the method described in JP-B-5990058. Specifically,” for “Specifically,”

[3] = target: T3, ERβ (Homo sapiens, UniProt Q92731); assay: Ability to activate transcription mediated by ERβ (pcDNA3-ERβ, pERE luciferase, HEK293 cells); assay type: cell-based; conditions: negative control 0.001475
T3 construct: host or cells: HEK293
T3 sequence (Q92731 whole entry): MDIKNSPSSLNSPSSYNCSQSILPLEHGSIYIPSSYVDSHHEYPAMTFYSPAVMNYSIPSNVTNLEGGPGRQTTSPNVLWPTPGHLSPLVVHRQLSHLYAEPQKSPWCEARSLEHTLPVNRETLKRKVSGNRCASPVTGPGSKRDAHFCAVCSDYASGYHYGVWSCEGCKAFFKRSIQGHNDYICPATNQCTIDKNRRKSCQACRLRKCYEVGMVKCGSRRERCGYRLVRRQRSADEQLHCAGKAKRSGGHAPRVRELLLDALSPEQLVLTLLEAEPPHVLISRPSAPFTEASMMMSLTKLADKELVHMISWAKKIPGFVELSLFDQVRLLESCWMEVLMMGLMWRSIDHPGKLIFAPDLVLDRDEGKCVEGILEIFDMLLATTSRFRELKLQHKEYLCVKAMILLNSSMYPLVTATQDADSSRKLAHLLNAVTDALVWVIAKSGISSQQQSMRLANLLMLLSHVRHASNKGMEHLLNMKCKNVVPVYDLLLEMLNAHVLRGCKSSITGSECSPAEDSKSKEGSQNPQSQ
Description: (§4) 1) Experimental Method (Measurement of Transcriptional Activity Mediated by ERs)
(§5) HEK293 cells were inoculated at a cell density of 4.0×10^4 cells/well to a 96-well plate. After 12 hours therefrom, the medium was replaced with a culture solution (DMEM containing 5% (v/v) charcoal-treated serum). The cells were cotransfected with pcDNA3-ERα or pcDNA3-ERβ (Promega Corp.) and pERE and pRL-CMV (Promega Corp.) using Lipofectamine 2000 (Invitrogen Corp.) according to the protocol attached to the product. 24 hours after transfection, the medium was replaced with a culture medium containing a test sample, followed by culture for another 24 hours. Then, luciferase activity was measured using Dual-Glo™ Luciferase Assay System (Promega Corp.) according to the attached protocol. The luminescence intensity of firefly luciferase (index for the ability to activate transcription mediated by ERE) was divided by the luminescence intensity of Renilla reniformis luciferase (index for the transfection efficiency of the plasmids) to calculate a relative light unit (RLU).

[4] = target: T4, ERα (Homo sapiens, UniProt P03372); assay: Ability to activate transcription mediated by ERα (pcDNA3-ERα, pERE luciferase, HEK293 cells); assay type: cell-based; conditions: negative control 0.004573
T4 construct: host or cells: HEK293
T4 sequence (P03372 1-595): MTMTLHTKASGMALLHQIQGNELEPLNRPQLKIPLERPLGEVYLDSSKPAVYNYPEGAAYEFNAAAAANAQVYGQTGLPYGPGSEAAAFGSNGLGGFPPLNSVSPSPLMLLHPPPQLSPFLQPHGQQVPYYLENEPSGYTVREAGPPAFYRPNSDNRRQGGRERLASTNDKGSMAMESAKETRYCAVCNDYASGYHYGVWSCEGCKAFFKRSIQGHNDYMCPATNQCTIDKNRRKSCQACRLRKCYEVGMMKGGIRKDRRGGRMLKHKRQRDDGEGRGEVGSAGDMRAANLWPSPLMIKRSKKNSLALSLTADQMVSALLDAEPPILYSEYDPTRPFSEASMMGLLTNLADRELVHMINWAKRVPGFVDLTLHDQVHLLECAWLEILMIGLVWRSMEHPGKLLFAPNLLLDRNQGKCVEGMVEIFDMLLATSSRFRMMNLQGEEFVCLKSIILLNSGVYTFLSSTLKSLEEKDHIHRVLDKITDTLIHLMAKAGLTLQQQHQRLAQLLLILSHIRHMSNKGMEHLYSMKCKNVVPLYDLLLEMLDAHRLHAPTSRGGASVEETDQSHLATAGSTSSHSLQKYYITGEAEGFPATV
Description: as §4, §5

[5] = tested on: uterus of ovariectomized rat; assay: Uterus weight in ovariectomized (OVX) rat; assay type: in vivo; conditions: 4 μg/kg/day subcutaneous, vs negative solvent group
Description: 8-week-old female Crl:CD (SD) rats were obtained from Charles River Laboratories Japan, Inc. and individually identified by the ear punching method on the receipt date. Then, an acclimatization period was established for 1 week. The animals were raised in a rearing room under a set environment involving a temperature of 22±3° C., a humidity of 50±20%, air ventilation from 13 to 17 times/hour, and a lighting time from 8:00 to 20:00. During the acclimatization period, the rats were allowed to freely ingest solid feed CRF-1 (Oriental Yeast Co., Ltd.). Since the feeding with CRF-1, the rats were allowed to freely ingest customized feed AIN-93G (Oriental Yeast Co., Ltd.) free from components derived from soybeans.
On the end date of acclimatization and the following day, the flank cavity was opened under isoflurane anesthesia to harvest the right and left ovaries including fallopian tubes. Other non-OVX rats were subjected to only opening and suture (sham surgery). Immediately thereafter, an antibiotic was subcutaneously administered at a dose of 100 μl/animal. After the surgery, the sham surgery or OVX animals were given customized feed and raised for approximately 1 week.
From 1.5 hours before a shift from the light phase to the dark phase (18:30), a negative solvent (DMSO) or a test substance was subcutaneously administered at a dose of 0.5 ml/kg to the back of the neck according to Table 3 described below using a syringe and an injection needle.
After the completion of all procedures of measurement and analysis, the rats were euthanized by blood letting under isoflurane anesthesia, and the uterus was harvested. Wet weights were measured.
Skin temperatures differed largely among individuals, and the Smirnov-Grubbs test was conducted in order to exclude outliers beforehand. Results of measuring tail skin temperatures and results of measuring uterus weights were statistically analyzed by testing using the Dunnett's test.

## 4-(4,4-difluoro-2-(4-hydroxyphenyl)but-3-en-1-yl)-3,5 [Compound 18-F]
[1]; 0.01 nM
  relative light unit (RLU), ligand binding activity ERα: 0.03608
[1]; 0.1 nM
  relative light unit (RLU), ligand binding activity ERα: 0.1312
[1]; 1 nM
  relative light unit (RLU), ligand binding activity ERα: 1.177
[1]; 10 nM
  relative light unit (RLU), ligand binding activity ERα: 2.968
[1]; 100 nM
  relative light unit (RLU), ligand binding activity ERα: 3.391
[2]; 0.01 nM
  relative light unit (RLU), ligand binding activity ERβ: 0.6452
[2]; 0.1 nM
  relative light unit (RLU), ligand binding activity ERβ: 2.101
[2]; 1 nM
  relative light unit (RLU), ligand binding activity ERβ: 2.317
[2]; 10 nM
  relative light unit (RLU), ligand binding activity ERβ: 2.025
[2]; 100 nM
  relative light unit (RLU), ligand binding activity ERβ: 2.304
[3]; 0.01 pM
  relative light unit (RLU), transcription activation ERβ: 0.003231
[3]; 0.1 pM
  relative light unit (RLU), transcription activation ERβ: 0.00681
[3]; 1 pM
  relative light unit (RLU), transcription activation ERβ: 0.01281
[3]; 10 pM
  relative light unit (RLU), transcription activation ERβ: 0.03479
[3]; 100 pM
  relative light unit (RLU), transcription activation ERβ: 0.03642
[3]; 1000 pM
  relative light unit (RLU), transcription activation ERβ: 0.03659
[3]; 10000 pM
  relative light unit (RLU), transcription activation ERβ: 0.03706
[4]; 0.1 pM
  relative light unit (RLU), transcription activation ERα: 0.01194
[4]; 1 pM
  relative light unit (RLU), transcription activation ERα: 0.01337
[4]; 10 pM
  relative light unit (RLU), transcription activation ERα: 0.01971
[4]; 100 pM
  relative light unit (RLU), transcription activation ERα: 0.04067
[4]; 1000 pM
  relative light unit (RLU), transcription activation ERα: 0.06395
[4]; 10000 pM
  relative light unit (RLU), transcription activation ERα: 0.06152

## Oc1ccc(CC(c2ccc(O)cc2)C2CCCCC2)cc1 (stereo not drawn) [Compound 4, 4,4′-(1-cyclohexylethane-1,2-diyl)diphenol]
other
  melting point: 74 to 76 °C

## Oc1ccc(CC(C=C(F)F)c2ccc(O)cc2)cc1 (stereo not drawn) [Compound 7, 4,4′-(4,4-difluorobut-3-ene-1,2-diyl)diphenol]
[1]; 0.01 nM
  relative light unit (RLU), ligand binding activity ERα: 0.02799
[1]; 0.1 nM
  relative light unit (RLU), ligand binding activity ERα: 0.0373
[1]; 1 nM
  relative light unit (RLU), ligand binding activity ERα: 0.02919
[1]; 10 nM
  relative light unit (RLU), ligand binding activity ERα: 0.06191
[1]; 100 nM
  relative light unit (RLU), ligand binding activity ERα: 1.588
[2]; 0.01 nM
  relative light unit (RLU), ligand binding activity ERβ: 0.06046
[2]; 0.1 nM
  relative light unit (RLU), ligand binding activity ERβ: 0.9104
[2]; 1 nM
  relative light unit (RLU), ligand binding activity ERβ: 1.877
[2]; 10 nM
  relative light unit (RLU), ligand binding activity ERβ: 2.074
[2]; 100 nM
  relative light unit (RLU), ligand binding activity ERβ: 2.408
[3]; 0.01 pM
  relative light unit (RLU), transcription activation ERβ: 0.002068
[3]; 0.1 pM
  relative light unit (RLU), transcription activation ERβ: 0.002153
[3]; 1 pM
  relative light unit (RLU), transcription activation ERβ: 0.00383
[3]; 10 pM
  relative light unit (RLU), transcription activation ERβ: 0.01191
[3]; 100 pM
  relative light unit (RLU), transcription activation ERβ: 0.02336
[3]; 1000 pM
  relative light unit (RLU), transcription activation ERβ: 0.03253
[3]; 10000 pM
  relative light unit (RLU), transcription activation ERβ: 0.03471
[4]; 0.1 pM
  relative light unit (RLU), transcription activation ERα: 0.006825
[4]; 1 pM
  relative light unit (RLU), transcription activation ERα: 0.008059
[4]; 10 pM
  relative light unit (RLU), transcription activation ERα: 0.008285
[4]; 100 pM
  relative light unit (RLU), transcription activation ERα: 0.01621
[4]; 1000 pM
  relative light unit (RLU), transcription activation ERα: 0.04026
[4]; 10000 pM
  relative light unit (RLU), transcription activation ERα: 0.04776

## C[C@]12CC[C@@H]3c4ccc(O)cc4CC[C@H]3[C@@H]1CC[C@@H]2O [E2, estradiol, reference compound]
[5]
  uterus wet weight (FIG. 6): significantly increased
